Reference: ChEMBL document CHEMBL6096703 (J Med Chem, 2025)

Assays:
[1] = molecular target: T1, Poly [ADP-ribose] polymerase 2 (Homo sapiens, UniProt Q9UGN5); assay: Inhibition of PARP2 (unknown origin) at 1 uM preincubated with compound for 10 mins followed by DNA and NAD+ addition and measured after 60 mins by chemiluminescence based envision reader analysis relative to control; settings: time 70.0 min
[2] = molecular target: T2, Poly [ADP-ribose] polymerase 1 (Homo sapiens, UniProt P09874); assay: Inhibition of PARP1 (unknown origin) preincubated with compound for 10 mins followed by DNA and NAD+ addition and measured after 60 mins by chemiluminescence based envision reader analysis
T2 sequence (P09874 whole entry): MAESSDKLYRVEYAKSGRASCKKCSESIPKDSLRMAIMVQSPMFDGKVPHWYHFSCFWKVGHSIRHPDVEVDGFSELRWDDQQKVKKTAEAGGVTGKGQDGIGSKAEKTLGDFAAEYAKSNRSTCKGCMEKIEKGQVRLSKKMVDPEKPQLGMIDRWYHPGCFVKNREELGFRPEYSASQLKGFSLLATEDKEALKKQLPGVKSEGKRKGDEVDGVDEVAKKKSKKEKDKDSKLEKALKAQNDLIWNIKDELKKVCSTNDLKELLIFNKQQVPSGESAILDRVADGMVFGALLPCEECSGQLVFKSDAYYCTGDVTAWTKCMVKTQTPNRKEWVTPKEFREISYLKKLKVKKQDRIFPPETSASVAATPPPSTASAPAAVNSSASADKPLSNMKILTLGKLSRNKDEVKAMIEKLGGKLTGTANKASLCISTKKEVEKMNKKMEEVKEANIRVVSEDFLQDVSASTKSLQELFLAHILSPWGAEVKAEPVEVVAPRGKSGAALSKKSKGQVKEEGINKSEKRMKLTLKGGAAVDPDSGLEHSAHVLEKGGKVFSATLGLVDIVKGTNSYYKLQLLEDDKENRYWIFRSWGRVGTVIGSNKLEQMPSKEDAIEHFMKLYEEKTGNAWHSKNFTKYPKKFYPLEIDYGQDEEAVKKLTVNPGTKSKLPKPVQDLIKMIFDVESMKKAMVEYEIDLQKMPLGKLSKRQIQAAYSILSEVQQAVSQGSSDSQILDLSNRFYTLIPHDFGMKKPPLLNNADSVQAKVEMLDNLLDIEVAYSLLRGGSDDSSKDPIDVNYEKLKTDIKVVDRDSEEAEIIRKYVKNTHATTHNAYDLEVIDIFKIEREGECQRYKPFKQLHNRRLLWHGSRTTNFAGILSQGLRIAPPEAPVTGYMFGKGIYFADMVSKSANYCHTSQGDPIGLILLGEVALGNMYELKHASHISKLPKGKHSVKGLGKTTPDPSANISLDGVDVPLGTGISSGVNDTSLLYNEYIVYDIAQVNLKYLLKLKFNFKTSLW

[3] = molecular target: T1, Poly [ADP-ribose] polymerase 2; assay: Inhibition of PARP2 (unknown origin) preincubated with compound for 10 mins followed by DNA and NAD+ addition and measured after 60 mins by chemiluminescence based envision reader analysis
[4] = molecular target: T2, Poly [ADP-ribose] polymerase 1; assay: Inhibition of PARP1 (unknown origin) at 1 nM preincubated with compound for 10 mins followed by DNA and NAD+ addition and measured after 60 mins by chemiluminescence based envision reader analysis relative to control; settings: time 70.0 min
[5] = system: MDA-MB-436; assay: Antiproliferative activity against human MDA-MB-436 cells assessed as reduction in cell viability incubated for 7 days by CCK-8 assay; format: functional, cell-based; settings: MDA-MB-436, 168 h
[6] = system: MDA-MB-436; assay: Antiproliferative activity against human MDA-MB-436 cells assessed as inhibition of cell proliferation at 100 nM incubated for 7 days by CCK-8 assay relative to control; format: functional; settings: MDA-MB-436, 168 h, time 7 day
[7] = Cmax in male Balb/c mouse at 1 mg/kg, po measured upto 96 hrs by LC-MS/MS analysis; format: ADME, organism-based; settings: in vivo
[8] = Clearance in male Balb/c mouse at 1 mg/kg, po measured upto 96 hrs by LC-MS/MS analysis; format: ADME, organism-based; settings: male, Balb/c, in vivo
[9] = Half life in male Balb/c mouse at 1 mg/kg, po measured upto 96 hrs by LC-MS/MS analysis; format: ADME, organism-based; settings: male, Balb/c, in vivo
[10] = AUC(0 to t) in male Balb/c mouse at 1 mg/kg, po measured upto 96 hrs by LC-MS/MS analysis; format: ADME, organism-based; settings: male, Balb/c, in vivo

T1 sequence (Q9UGN5 whole entry): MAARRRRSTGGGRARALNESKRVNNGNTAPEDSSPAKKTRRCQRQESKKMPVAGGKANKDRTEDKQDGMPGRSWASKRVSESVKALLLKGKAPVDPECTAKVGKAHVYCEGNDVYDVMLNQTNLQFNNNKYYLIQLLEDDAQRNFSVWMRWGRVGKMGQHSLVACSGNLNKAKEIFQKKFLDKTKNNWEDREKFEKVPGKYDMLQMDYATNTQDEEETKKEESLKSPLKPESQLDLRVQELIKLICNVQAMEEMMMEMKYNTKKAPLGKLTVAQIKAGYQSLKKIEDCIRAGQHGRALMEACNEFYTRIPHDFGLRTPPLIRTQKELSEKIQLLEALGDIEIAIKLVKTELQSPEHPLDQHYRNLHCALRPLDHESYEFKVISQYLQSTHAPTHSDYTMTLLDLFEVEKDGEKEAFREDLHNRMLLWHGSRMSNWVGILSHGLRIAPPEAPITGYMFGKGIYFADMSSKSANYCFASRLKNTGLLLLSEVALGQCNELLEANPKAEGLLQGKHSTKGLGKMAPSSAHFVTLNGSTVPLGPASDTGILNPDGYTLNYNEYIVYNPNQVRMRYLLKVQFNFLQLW

Row | IC50 [5] [nM] | Cmax [7] [ng/mL] | CL/F [8] [mL/min/kg] | half-life [9] [h] | AUC(0-t) at 96 h [10] [ng·h/mL] | SMILES | inhibition [1] [%] | IC50 [2] [nM] | IC50 [3] [nM] | inhibition [4] [%] | inhibition at 0.1 µM [6] [%]
1 |  |  |  |  |  | CCc1cc2ncc(CN3CC=C(c4ccc(C)cc4F)CC3)cc2[nH]c1=O | 75.4 |  |  | 61.7 | 5
2 |  |  |  |  |  | CCc1cc2ncc(CN3CC=C(c4ccc(C#N)cc4)CC3)cc2[nH]c1=O | 91.7 |  |  | 75.6 | 37.9
3 |  |  |  |  |  | CCc1cc2ncc(CN3CC=C(c4cnc(F)c(F)c4)CC3)cc2[nH]c1=O | 77.3 |  |  | 72.3 | 37.7
4 | 1.9 | 2250 | 1 | 6.3 | 16000 | CCc1cc2ncc(CN3CCN(c4cc(F)c(C#N)cn4)CC3)cc2[nH]c1=O |  |  |  |  | 
5 | 2.8 |  |  |  |  | CCc1cc2ncc(CN3CCN(c4ccc(C(=O)NC)nc4F)CC3)cc2[nH]c1=O | 93.8 | 0.65 | 88 | 95.2 | 

Row | SMILES | IC50 [5] [nM] | Cmax [7] [ng/mL] | CL/F [8] [mL/min/kg] | half-life [9] [h] | AUC(0-t) at 96 h [10] [ng·h/mL] | inhibition [1] [%] | IC50 [2] [nM] | IC50 [3] [nM] | inhibition [4] [%] | inhibition at 0.1 µM [6] [%]
6 | CCc1cc2ncc(CN3CC=C(c4ccc([N+](=O)[O-])cc4F)CC3)cc2[nH]c1=O | 25.7 |  |  |  |  | 98.1 | 0.47 | 37 | 72.1 | 
